Patent US4233309A, “Novel 1-substituted-3-acylpyrrole derivatives, platelet aggregation inhibitors containing them, as active ingredients, and processes for production of said derivatives” (Teijin Limited, priority 1977, dated 1980)
≈ marks a conversion by molar mass, not a printed value. Read-outs that look alike come from different tables or passages of the source.

Experiments:
[1] = test system: platelet aggregation (guinea pig PRP, extra vivo); test: Inhibitory effect of compounds on platelet aggregation in extra vivo (Table 4); design: species or system Hartley-strain guinea pigs; details: Cavia porcellus, 100 mg/kg, route PS [sic], 1 h
Experimental: The effect of the compounds shown in Table 4 on platelet aggregation was assessed using guinea pig in extra vivo.
Each of the test compounds was dissolved in propylene glycol so that its concentration became 100 mg/ml (dosage corresponded to 100 mg/kg) and 30 mg/ml (dosage corresponded to 30 mg/kg). The drug solution was administered either orally or subcutaneously to Hartley-strain guinea pigs (3 per group) having a body weight of 300 to 350 g. As a control, propylene glycol was administered. One hour after the administration, citrated blood was taken out by cardiac puncture, and centrifuged to obtain PRP (see Example 67).
In the case of oral administration, the animals had been fasted overnight.
Into a quvett set in a holder of an aggregometer and prewarmed at 37° C. with stirring, was put 450 μl of the above PRP, and then 50 μl of an aggregating agent was added. The aggregation curve was recorded for an additional 3 minutes, and an increase in light transmittance through PRP after 3 minutes (TB) was recorded (see Example 67). As a control, an increase of transmittance of PRP taken from a guinea pig group administered with propylene glycol alone (TA) was recorded in the same way above. The percent inhibitions were calculated in accordance with the following equation. [formula]
As the aggregating agent, sodium arachidonate (a final concentraton of 0.03 mM) and a collagen suspension (a final concentration of 5 μg/ml) were used.
The percent inhibitions in the above table are averages of three guinea pigs. For details of the above extra vivo test about inhibition of platelet aggregation, the literature references described in Example 67 may be referred to.

[2] = test system: biosynthesis of prostaglandins (microsomes of the seminal vesicle of bovine); test: Inhibitory effect on prostaglandin biosynthesis in vitro (Table 3); assay type: biochemical; details: 4 μg/ml sodium arachidonate, bioassay on rat fundus stomach strips
Experimental: Sprangue-Dawley rats (male, 180-200 g) were fasted overnight, and killed by blow on the head. The stomach was isolated, and fundus stomach strips were prepared. The smooth muscle strips were perfused with Krebs-Hensleit solution (gassed with 95% O2 +5% CO2 gas) of 37° C. at a rate of […]. The Krebs-Hensleit solution contained 0.1 μg/ml of atropine, 0.1 μg/ml of phenoxybenzamine, 3 μg/ml of propranolol, 0.1 μg/ml of tripelennamine, and 0.2 μg/ml of methylsergide to prevent the effect of smooth muscle contracting substances, and 1 μg/ml of indomethacine to inhibit the biosynthesis of prostaglandin by the smooth muscles. Then, 150 μl of a reaction solution containing biologically synthesized prostaglandin was added to the perfusion solution, and the amount of the biologically synthesized prostaglandin was measured from the contraction of the smooth muscles. The contraction of the smooth muscles was recorded on a recorder using an isotonic transducer.
The reaction solution containing biologically synthesized prostaglandin was prepared in the following manner.
To 0.4 mg/ml of microsomes of the seminal vesicle of bovine were added 5 mM of L-tryptophan, 0.025 μM of bovine hemoglobin and 3 mμ of glutathione as cofactors. The mixture was incubated together with each of the test compounds shown in Table 4 at 37° C. for 2 minutes, and immediately then, 4 μg/ml of sodium arachidonate was added. The mixture was further incubated at 37° C. for 10 minutes, and immediately then, the prostaglandin activity of the reaction solution was measured by bioassay.
The microsomes of the seminal vesicle of bovine had been prepared by suspending microsomes of the seminal vesicle of bovine (a product of Miles Laboratories, Inc.) in a 50 mM Tris.HCl buffer (pH 7.4) using a glass homogenizer, and stored in ice water prior to use.
ID50 denotes the concentration of each test compound required to inhibit the biosynthesis of prostaglandins by 50%.

[3] = test system: platelet aggregation (platelet-rich plasmas (PRP) of guinea pigs); test: Activity of inhibiting platelet aggregation in vitro, guinea pig PRP, sodium arachidonate as aggregating agent (Table 1); assay type: cell-based, Hartley-strain male guinea pigs; details: Cavia porcellus, sodium arachidonate 0.03 mM final, 37° C., final concentration, read-out: IC50 (minimum concentration of drug which showed a percent inhibition of more than 50%)
Experimental: (§1) Some 1-substituted-3-acylpyrrole derivatives and other drugs were tested for platelet aggregation inhibiting activities in vitro using platelet-rich plasmas (PRP) of man and guinea pigs. The results are shown as minimum concentration of drugs which inhibit more than 50% of platelet aggregation induced by several aggregating agents.
(§2) In experiments with PRP of guinea pigs, sodium arachidonate (final concentration 0.03 mM) was used as an aggregating agent. In experiments with human PRP, sodium arachidonate (final concentration 0.1 mM), collagan suspension (final concentration 10 μg/ml), epinephrine solution (final concentration 20 μg/ml; for secondary aggregation), an epinephrine solution (final concentration 2 μg/ml; for primary aggregation) and ADP (final concentration 5 μM) were used as aggregating agents.
In an experiment with guinea pig PRP, citrated blood (containing 0.38% sodium citrate as a final concentration) was withdrawn by cardiac puncture from Hartley-strain male guinea pigs having a body weight of 350 to 600 g. The citrated blood was centrifuged at 1,000 rpm for 10 minutes at room temperature, and the supernatant platelet suspension (PRP) was separated.
The PRP was stored at room temperature, and used as soon as possible. Those which had been stored for more than 4 hours after preparation were not used.
(§3) For each test, a drug is dissolved in dimethylsulfoxide to a concentration of 10 mg/ml, and diluted with physiological saline to form 1 ml each of solutions having a concentration of 2500 μg/ml, 1000 μg/ml, 750 μg/ml, 500 μg/ml, 250 μg/ml and 100 μg/ml. A compound having a free carboxylic acid as a residue such as indomethacine and Ibprofen was dissolved in 0.1 M NaHCO3 to form a sodium salt solution having a concentration of 10 mg/ml. Then, the solution was diluted with physiological saline in the same way as above to form a test drug solution.
(§4) Arachidonic acid (99% pure, a product of Sigma Co., Ltd.) was dissolved in 0.1 M NaHCO3, and a 3.3 mM solution of sodium arachidonate was prepared. The solution was diluted with physiological saline to a concentration of 1 mM and used in the experiments. The 3.3 mM solution was stored in a refrigerator as a stock solution, and the 1 mM solution was newly prepared from the stock solution every time it was used.
(§5) Physiological saline (50 μl) and 50 μl of the aggregating agent solution were added to 400 μl of PRP which had been pre-warmed and stirred at 37° C. in a quvett set in a holder of an aggregometer. Platelet aggregation was thus initiated, and the change of light transmittance through a stirred platelet suspension was recorded for 3 minutes by a recorder joined to the aggregometer. An increase in transmittance after 3 minutes (T0) was used as a parameter of the rate of platelet aggregation in control experiments.
(§6) To 400 μl of PRP in a quvett was added 50 μl of a test drug solution. The mixture was pre-incubated and stirred for 2 minutes at 37° C. Then 50 μl of the aggregating agent was added to drug containing PRP and again aggregation responses were recorded as increases in light transmittance after 3 minutes (T1) in the same way as in (1) above. Percent inhibition was calculated from the formula [formula]
For the above in vitro test for the inhibition of platelet aggregation, reference may be had to H. M. Davis, J. Phyllis, K. Paul and W. Terry: Thromb. Res. 11, 217-226 (1977) and R. E. Anderson and J. G. Foulks: Thromb. Haemos. 36, 343-359 (1976).

carrageenan edema = test: Antiinflammatory activity (carrageenan edema of rat paw, Table 5); assay type: in vivo, Sprangue-Dawley (SD) male rats; details: 3 h after 1% carrageenan
Experimental: Sprangue-Dawley (SD) male rats with a body weight of 160 to 180 g, four in each group, were used. The volume of the left leg was measured, and each of the test compounds shown in Table 5 (100 mg/kg dissolved in polyethylene glycol so as to provide a volume of 2 ml/kg) was orally administered. One hour later, 0.1 ml of 1% carrageenan (dissolved in physiological saline) as an inflammation-inducing substance was subcutaneously injected to the paw of the left hind leg. A control group was orally administered with 2 ml/kg of polyethylene glycol. As a positive control, 25 mg/kg of Ibprofen was similarly administered. Three hours after the injection of 1% carrageenan, the volume of the left leg was measured, and the ratio of edema was calculated from the volume before the administration of the carrageenan. The percent inhibition of edema in comparison with the control group was determined.

[4] = test system: platelet aggregation (human PRP); test: Activity of inhibiting platelet aggregation in vitro, human PRP, several aggregating agents (Table 2); assay type: cell-based, human (healthy volunteers)
Experimental: as §1, §2
In the experiment using human PRP, heapinized blood (containing 20 IU/ml of heparin) was taken from the cubital vein of healthy volunteers, and centrifuged at 1,000 rpm at room temperature for 10 minutes. The supernatant platelet suspension (PRP) was separated.
as §3, §4
The collagen suspension (made by Hormon-Chemie, West Germany) was diluted with physiological saline to a concentraton of 100 μg/ml.
Epinephrine hydrogen tartarate was dissolved in physiological saline to form solutions having a concentration of 200 μg/ml (corresponding to a final concentration of 2 μg/ml).
Disodium salt of ADP was dissolved in a 0.1 M tris-hydrochloric acid buffer to form a 50 μM solution (corresponding to a final concentraton of 5 μM).
as §5
as §6, with “[formula] […]” for “[formula]”

[5] = collagen 5 μg/ml, read-out: Percent inhibition of platelet aggregation, collagen
[6] = sodium arachidonate 0.03 mM, read-out: Percent inhibition of platelet aggregation, sodium arachidonate

Row | SMILES | inhibition at 100 mg/kg [1, 5] | inhibition at 100 mg/kg [1, 6] | ID50 (concentration required to inhibit the biosynthesis of prostaglandins by 50%) [2] | IC50 [3] | other results
1 | CC(=O)Oc1ccccc1C(=O)O [Acetylsalicylic acid, reference compound] | 41% | 77% | – | – | –
2 | Cc1cc(C(=O)c2ccccc2)c(C)n1CCO [Compound 100, 2-(3-benzoyl-2,5-dimethylpyrrol-1-yl)-ethanol] | – | – | 145.3 µg/mL | 5 µg/mL (≈ 20.6 µM) | –
3 | Cc1cc(C(=O)c2ccccc2)c(C)n1[C@@H](C)CO [Compound 108, (2S)-2-(3-benzoyl-2.5-dimethylpyrrol-1-yl)-2-methylethanol] | 14% | 62% | – | 5 µg/mL (≈ 19.4 µM) | –
4 | Cc1cc(C(=O)c2ccccc2)c(C)n1[C@H](C)CO [Compound 110, (2R)-2-(3-benzoyl-2,5-dimethylpyrrol-1-yl)-2-methylethanol] | 90% | 96% | – | 1 µg/mL (≈ 3.89 µM) | –
5 | COCC(C)n1c(C)cc(C(=O)c2ccccc2)c1C (stereo not shown) [Compound 206, 2-(3-benzoyl-2,5-dimethylpyrrol-1-yl)-2-methylethyl methyl ether] | 97% | 90% | 18.4 µg/mL | 2.5 µg/mL (≈ 9.21 µM) | Percent inhibition of edema (carrageenan edema; 100 mg/kg orally): 10%
6 | COC(c1ccccc1)C(C)n1c(C)cc(C(=O)c2ccccc2)c1C (stereo not shown) [Compound 218, 2-(3-benzoyl-2,5-dimethylpyrrol-1-yl)-2-methyl-1-phenylethyl methyl ether] | – | – | – | 5 µg/mL (≈ 14.4 µM) | –
7 | COCCn1c(C)cc(C(=O)c2ccccc2C)c1C [Compound 238, 2-(3-o-methylbenzoyl-2,5-dimethylpyrrol-1-yl) ethyl methyl ether] | – | – | – | 10 µg/mL (≈ 36.9 µM) | –
8 | COCCn1c(C)cc(C(=O)c2cccs2)c1C [Compound 252, 2-[3-(2-thenoyl)-2,5-dimethylpyrrol-1-yl]-ethyl methyl ether] | – | – | – | 2.5 µg/mL (≈ 9.49 µM) | –
9 | CCCCC(=O)OCC(C)n1c(C)cc(C(=O)c2ccccc2)c1C (stereo not shown) [Compound 310, 2-(3-benzoyl-2,5-dimethylpyrrol-1-yl)-2-methylethyl valerate] | – | – | 11.5 µg/mL | 2.5 µg/mL (≈ 7.32 µM) | –
10 | Cc1cc(C(=O)c2ccccc2)c(C)n1C(C)COC(=O)c1ccccc1 (stereo not shown) [Compound 314, 2-(3-benzoyl-2,5-dimethylpyrrol-1-yl)-2-methylethyl benzoate] | – | – | 56.0 µg/mL | 1 µg/mL (≈ 2.77 µM) | –
11 | CC(=O)OC(c1ccccc1)C(C)n1c(C)cc(C(=O)c2ccccc2)c1C (stereo not shown) [Compound 328, 2-(3-benzoyl-2,5-dimethylpyrrol-1-yl)-2-methyl-1-phenylethyl acetate] | – | – | – | 2.5 µg/mL | –
12 | Cc1cc(C(=O)c2ccccc2)c(C)n1CCSc1ccccc1 [Compound 404, 2-(3-benzoyl-2,5-dimethylpyrrol-1-yl)ethyl phenyl sulfide] | – | – | – | 2.5 µg/mL (≈ 7.45 µM) | –
13 | CCOC(=O)C(C)n1c(C)cc(C(=O)c2ccccc2)c1C (stereo not shown) [Compound 706, ethyl 2-(3-benzoyl-2,5-dimethylpyrrol-1-yl) propionate] | – | – | 20.0 µg/mL | 1 µg/mL (≈ 3.34 µM) | –
14 | Cc1cc(C(=O)c2ccccc2)c(C)n1C(C)C(N)=O (stereo not shown) [Compound 802, 2-(3-benzoyl-2,5-dimethylpyrrol-1-yl)propionamide] | 40% | 100% | – | 5 µg/mL (≈ 18.5 µM) | –
15 | CC(C)Cc1ccc(C(C)C(=O)O)cc1 (stereo not shown) [Ibprofen, reference compound] | – | – | – | – | Percent inhibition of edema (positive control) (carrageenan edema; 25 mg/kg): 51%
16 | COc1ccc2c(c1)c(CC(=O)O)c(C)n2C(=O)c1ccc(Cl)cc1 [Indomethacine] | – | – | 0.6 µg/mL | 5 µg/mL (≈ 14 µM) | IC50 ([4]; ADP 5 μM, read-out: IC50, aggregation by ADP): 10 µg/mL (≈ 27.9 µM); IC50 ([4]; arachidonate 0.1 mM, read-out: IC50, aggregation by arachidonate): 1 µg/mL (≈ 2.79 µM); IC50 ([4]; collagen 10 μg/ml, read-out: IC50, aggregation by collagen): 10 µg/mL (≈ 27.9 µM); IC50 ([4]; epinephrine 2 μg/ml, primary aggregation, read-out: IC50, aggregation by epinephrine, primary): 10 µg/mL (≈ 27.9 µM); IC50 ([4]; epinephrine 20 μg/ml, secondary aggregation, read-out: IC50, aggregation by epinephrine, secondary): 1 µg/mL (≈ 2.79 µM)
